In one series the target is T1, dopamine-D2 receptors (Rattus norvegicus, UniProt P61169).
T1 construct: labels dopamine receptors in rat pituitary and brain; from tissue; host or cells: rat brain / pituitary membranes (from the title of the cited method)
Put plainly: In vitro affinity for dopamine-D2 receptors ([3H]-spiroperidol receptor binding assay, Creese et al.). How it is done:
In Vitro Affinity for Dopamine-D2 Receptors
Affinity of the compounds for dopamine-D2 receptors was determined using the receptor binding assay described by I. Creese, R. Schneider and S. H. Snyder: “[^3H]-Spiroperidol labels dopamine receptors in rat pituitary and brain”, Eur. J. Pharmacol., 46, 377-381, 1977.
(§1) The affinity of the compounds of the invention for dopamine-D2 receptors and serotonine reuptake sites was determined as described above. From the binding affinity measured for a given compound of formula (1), one can estimate a theoretical lowest effective dose. At a concentration of the compound equal to twice the measured Ki-value, 100% of the receptors likely will be occupied by the compound. Converting that concentration to mg of compound per kg of patient yields a theoretical lowest effective dose, assuming ideal bioavailability. Pharmacokinetic, pharmacodynamic, and other considerations may alter the dose actually administered to a higher or lower value. The dosage expediently administered is 0.001-1000 mg/kg, preferably 0.1-100 mg/kg of patient's bodyweight.

A further series deals with T2, serotonin reuptake sites (Rattus norvegicus, UniProt P31652).
T2 construct: from tissue; host or cells: rat cortical membranes (from the title of the cited method)
T2 sequence (P31652 whole entry): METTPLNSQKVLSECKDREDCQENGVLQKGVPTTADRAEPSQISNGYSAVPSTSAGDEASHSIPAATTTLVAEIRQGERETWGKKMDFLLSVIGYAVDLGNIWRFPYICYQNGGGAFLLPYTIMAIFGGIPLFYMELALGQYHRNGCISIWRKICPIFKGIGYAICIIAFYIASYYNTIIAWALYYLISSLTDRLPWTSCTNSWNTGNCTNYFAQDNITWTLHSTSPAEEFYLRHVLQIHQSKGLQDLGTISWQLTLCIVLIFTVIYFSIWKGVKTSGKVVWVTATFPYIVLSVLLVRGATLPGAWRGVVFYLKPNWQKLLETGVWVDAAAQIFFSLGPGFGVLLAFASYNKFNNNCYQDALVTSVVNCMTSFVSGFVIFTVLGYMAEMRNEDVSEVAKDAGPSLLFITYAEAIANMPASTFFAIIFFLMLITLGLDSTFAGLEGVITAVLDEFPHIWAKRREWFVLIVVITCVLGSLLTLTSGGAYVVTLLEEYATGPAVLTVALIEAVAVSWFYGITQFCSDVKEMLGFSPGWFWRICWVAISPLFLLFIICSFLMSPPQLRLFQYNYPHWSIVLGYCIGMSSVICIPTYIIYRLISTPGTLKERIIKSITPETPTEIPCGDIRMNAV
As to the kind of experiment: In vitro affinity for serotonin reuptake sites ([3H]-paroxetine binding assay, Habert et al.). On the procedure: In Vitro Affinity for Serotonin Reuptake Sites
Affinity of the compounds for serotonin reuptake sites was determined using the receptor binding assay described by E. Habert et al.,: “Characterisation of [^3H]-paroxetine binding to rat cortical membranes”, Eur. J. Pharmacol., 118, 107-114, 1985.
as §1

Series [1] has as its target T3, Human dopamine D2,L receptors (Homo sapiens, UniProt P14416).
T3 construct: host or cells: CHO-K1
As to the kind of experiment: Inhibition of forskolin-induced [3H]-cAMP accumulation in CHO-K1 cells. Type of series: cell-based. The note with it: Cloned human dopamine D2,L receptors, full agonist ε=1, full antagonist ε=0. On the procedure: Inhibition of Forskolin-Induced [^3H]-cAMP Accumulation
The in vitro functional activity at dopamine-D2 receptors, including the intrinsic activity (ε) of the compounds of the invention was measured by their ability to inhibit forskolin-induced [^3H]-cAMP accumulation.
Human dopamine D2,L receptors were Cloned in fibroblast cell line CHO-K1 cells and obtained from Dr. Grandy, Vollum Institute, Portland, Oreg., USA. CHO cells were grown in a Dulbecco's modified Eagle's medium (DMEM) culture medium, supplemented with 10% heat-inactivated fetal calf serum, 2 mM glutamine, 1 mM pyruvate, 5000 units/ml penicillin, 5000 μg/ml streptomycin and 200 μg/ml G-418 at 37° C. in 93% air/7% CO2. For incubation with test compounds, confluent cultures grown in 24 wells plates were used. Each condition or substance was routinely tested in quadruplicate. Cells were loaded with 1 μci [^3H]-adenine in 0.5 ml medium/well. After 2 hours, cultures were washed with 0.5 ml PBS containing 1 mM of the phospho-diesterase inhibitor isobutylmethylxanthine (IBMX) and incubated for 20 min with 0.5 ml PBS containing 1 mM IBMX and forskolin with or without test compound. After aspiration the reaction was stopped with 1 ml trichloroacetic acid 5% (w/v). […] 0.8 ml Extract was passed over Dowex (50WX-4 200-400 mesh) and aluminumoxide columns, eluted with water and 0.1M imidazole (pH=7.5). Eluates were mixed with 7 ml Insta-gel and radioactivity was counted with a liquid scintillation counter. The conversion of [^3H]-ATP into [^3H]-cAMP was expressed as the ratio in percentage radioactivity in the cAMP fraction as compared to combined radioactivity in both cAMP and ATP fractions, and basal activity was subtracted to correct for spontaneous activity.
Test compounds were obtained as 10 mM stock solutions in 100% DMSO, and diluted in PBS/IBMX to final concentrations. Typically, compounds were used in concentrations that ranged from 10^−10M to 10^−5M. From quadruplicate data counts, the mean was taken as an estimate for drug-induced, receptor-mediated effects at specified second messenger accumulation, expressed as percentage of control values (forskolin-stimulated cAMP accumulation, subtracted by basal activity). By using the non-linear curve-fitting program INPLOT or the Excel-add-in XL-Fit, mean values were plotted against drug concentration (in molar) and a sigmoid curve (four-parameter logistic curve) was constructed. The maximal forskolin-induced stimulated conversion is taken as maximum value and the maximal inhibition (usually at drug concentrations 10^−6 M or 10^−5 M) as minimum and these values were fixed during the fitting process. Thus, concentrations of the compound, causing 50% of the maximally obtained inhibition of forskolin-induced cAMP accumulation (EC50), are averaged over several experiments and presented as mean pEC50±SEM. Antagonist potency is assessed by co-incubating cells with a fixed agonist concentration and specified antagonist concentrations. Curve fitting procedures are identical to those used for estimating EC50 values. Thus IC50 values, i.e. the concentration that is able to achieve 50% of maximal antagonism that can be achieved by this compound. IC50 values are corrected using a Cheng-Prussoff equation, correcting it for agonist concentration and EC50 values that is obtained in the same experiment. Thus, Kb=IC50/(1+[agonist]/EC50, agonist).The corresponding pA2 value is −log (Kb). Concentration-response curve fitting allows estimation of pEC50 values and of maximal achievable effect (intrinsic activity or efficacy (ε). A full receptor agonist has ε=1, a full receptor antagonist has ε=0, and a partial receptor agonist has an intermediate intrinsic activity.
(cAMP levels reflect the balance of adenylyl cyclase and phosphodiesterase activity.)

Where [2] appears, read: receptor binding, read-out: Dopamine-D2 binding pKi (converted).
Setting [3] is: receptor binding, read-out: 5-HT reuptake binding pKi (converted).

Consider 23 molecules from patent US20070142397A2, “PHENYPIPERAZINE DERIVATIVES WITH A COMBINATION OF PARTIAL DOPAMINE-D2 RECEPTOR AGONISM AND SEROTONIN REUPTAKE INHIBITION” (SOLVAY PHARMECEUTICALS B.V., priority 2004, published 2007).

Each structure is given as a SMILES string. Structures can show the parent of a compound that is named as a salt. Where two headings read alike, the source gives them in different places.

T3 sequence (P14416 whole entry): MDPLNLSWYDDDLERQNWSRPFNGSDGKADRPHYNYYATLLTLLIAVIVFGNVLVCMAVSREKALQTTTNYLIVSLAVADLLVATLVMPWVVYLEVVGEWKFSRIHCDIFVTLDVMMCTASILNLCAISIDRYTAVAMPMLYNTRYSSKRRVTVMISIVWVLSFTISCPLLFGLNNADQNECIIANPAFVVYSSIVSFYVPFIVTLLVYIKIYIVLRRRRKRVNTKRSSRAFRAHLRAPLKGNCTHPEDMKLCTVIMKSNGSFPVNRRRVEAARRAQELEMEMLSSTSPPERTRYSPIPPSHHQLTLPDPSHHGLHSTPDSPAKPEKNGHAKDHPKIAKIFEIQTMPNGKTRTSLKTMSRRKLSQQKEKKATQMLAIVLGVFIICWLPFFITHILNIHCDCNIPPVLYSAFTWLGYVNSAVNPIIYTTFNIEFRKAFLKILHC
T1 sequence (P61169 whole entry): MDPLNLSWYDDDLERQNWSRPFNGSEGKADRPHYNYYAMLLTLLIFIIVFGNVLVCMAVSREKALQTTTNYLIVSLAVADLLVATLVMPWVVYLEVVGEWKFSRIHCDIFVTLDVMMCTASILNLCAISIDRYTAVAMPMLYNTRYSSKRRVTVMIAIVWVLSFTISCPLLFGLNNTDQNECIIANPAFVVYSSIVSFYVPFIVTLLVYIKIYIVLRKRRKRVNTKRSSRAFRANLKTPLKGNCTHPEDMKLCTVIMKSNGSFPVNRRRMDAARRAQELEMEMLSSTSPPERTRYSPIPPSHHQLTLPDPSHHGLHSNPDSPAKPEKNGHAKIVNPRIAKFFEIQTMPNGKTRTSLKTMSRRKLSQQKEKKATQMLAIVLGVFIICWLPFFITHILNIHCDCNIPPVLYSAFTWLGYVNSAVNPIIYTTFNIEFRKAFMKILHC

In the case of `C[C@@H]1CN(c2cccc3[nH]c(=O)oc23)C[C@H](C)N1CCCc1c[nH]c2ccc(F)cc12` (as salt: HCl) [compound 1], the melting point (usually the temperature, or range, at which the solid turns liquid) lay within 270 to 275 °C.

In turn, `CC(CCc1c[nH]c2ccc(F)cc12)N1CCN(c2cccc3c2oc(=O)n3C)CC1` (centres unmarked) (as salt: HCl) [compound 2] gave a melting point of 207 to 209 °C.

As for `CC(CCN1CCN(c2cccc3c2oc(=O)n3C)CC1)c1c[nH]c2ccc(F)cc12` (centres unmarked) (as salt: HCl) [compound 3], the melting point was 100 to 140 °C (dec.).

Regarding `Cn1cc(CCCN2CCN(c3cccc4c3oc(=O)n4C)CC2)c2cc(F)ccc21` (as salt: HCl) [compound 8], the melting point is > 225 °C (dec.).

`Cn1c(=O)oc2c(N3CCN(CCCCc4c[nH]c5ccc(F)cc45)CC3)cccc21` (as salt: HCl) [compound 11]: the melting point lay in the range of 254 to 256 °C.

`Cn1c(=O)oc2c(N3CCN(CCCCc4c[nH]c5ccc(C#N)cc45)CC3)cccc21` (as salt: HCl) [compound 12] came in with a melting point of 213 to 215 °C.

Consider `Cn1c(=O)oc2c(N3CCN(CCCc4c[nH]c5ccc(F)cc45)CC3)cc(F)cc21` (as salt: HCl) [compound 15], for which the melting point was 246 to 249 °C.

Consider `CCn1c(=O)oc2c(N3CCN(CCCc4c[nH]c5ccc(F)cc45)CC3)cccc21` (as salt: HCl) [compound 16], for which the melting point lay within 100 to 140 °C.

For the molecule `C[C@@H]1CN(c2cccc3[nH]c(=O)oc23)C[C@H](C)N1CCCc1c[nH]c2ccc(F)cc12` [compound 1], the Ki on dopamine-D2 receptors (setting [2]) is 20 nM; at serotonin reuptake sites (setting [3]) it was 5.01 nM. The “Dopamine-D2 cAMP accum ∈ (intrinsic activity)” value (“Dopamine-D2 cAMP accum ∈” below) in series [1] is on record as 0.13.

For `CC(CCc1c[nH]c2ccc(F)cc12)N1CCN(c2cccc3c2oc(=O)n3C)CC1` (centres unmarked) [compound 2], the Ki was 158 nM on dopamine-D2 receptors (setting [2]) and 1 nM at serotonin reuptake sites (setting [3]).

For `CC(CCN1CCN(c2cccc3c2oc(=O)n3C)CC1)c1c[nH]c2ccc(F)cc12` (centres unmarked) [compound 3], the Ki on dopamine-D2 receptors (setting [2]) is 100 nM; at serotonin reuptake sites (setting [3]), 0.794 nM. Moreover, the “Dopamine-D2 cAMP accum ∈” value in series [1] stood at 0.43.

Regarding `CC(Cc1c[nH]c2ccc(F)cc12)CN1CCN(c2cccc3c2oc(=O)n3C)CC1` (centres unmarked) [compound 4], the melting point was 166 to 168 °C. Further, the Ki at dopamine-D2 receptors (setting [2]) is 7.94 nM. Further, at serotonin reuptake sites (setting [3]), the Ki was 2.51 nM. The “Dopamine-D2 cAMP accum ∈” value in series [1] was found to be 0.22.

Molecule `Cc1cc(Cl)cc2c(CCCN3CCN(c4cccc5c4oc(=O)n5C)CC3)c[nH]c12` [compound 6] displayed a melting point of 159 to 162 °C. Besides, in series [1], the “Dopamine-D2 cAMP accum ∈” value is given as 0.52.

Consider `Cn1cc(CCCN2CCN(c3cccc4c3oc(=O)n4C)CC2)c2cc(Cl)ccc21` [compound 7], for which the melting point was 140 to 142 °C. The Ki on dopamine-D2 receptors (setting [2]) was 200 nM. Further, the Ki at serotonin reuptake sites (setting [3]) is 2.51 nM. Besides, in series [1], the “Dopamine-D2 cAMP accum ∈” value is listed as 0.15.

On to `Cn1cc(CCCN2CCN(c3cccc4c3oc(=O)n4C)CC2)c2cc(F)ccc21` [compound 8], for which the results for the Ki at dopamine-D2 receptors (setting [2]) and at serotonin reuptake sites (setting [3]) were 31.6 nM and > 10 nM, respectively. The “Dopamine-D2 cAMP accum ∈” value in series [1] is recorded as 0.44.

Turning to `Cn1c(=O)oc2c(N3CCN(CCCc4c[nH]c5ccc(F)cc45)CC3)cccc21` [compound 9], the melting point is 135 to 137 °C. At dopamine-D2 receptors (setting [2]), the Ki is 79.4 nM. The Ki on serotonin reuptake sites (setting [3]) was 7.94 nM. The “Dopamine-D2 cAMP accum ∈” value in series [1] is given as 0.12.

Turning to `Cn1c(=O)oc2c(N3CCN(CCCc4c[nH]c5ccc(C#N)cc45)CC3)cccc21` [compound 10], the melting point was in the range of 151 to 152 °C. Moreover, on dopamine-D2 receptors (setting [2]), the Ki is 126 nM. Also, the Ki on serotonin reuptake sites (setting [3]) is 3.98 nM. Moreover, in series [1], the “Dopamine-D2 cAMP accum ∈” value is on record as 0.66.

Regarding `Cn1c(=O)oc2c(N3CCN(CCCCc4c[nH]c5ccc(F)cc45)CC3)cccc21` [compound 11], the Ki on dopamine-D2 receptors (setting [2]) is 25.1 nM; at serotonin reuptake sites (setting [3]) it was > 10 nM. In addition, the “Dopamine-D2 cAMP accum ∈” value in series [1] was found to be 0.72.

Turning to `Cn1c(=O)oc2c(N3CCN(CCCCc4c[nH]c5ccc(C#N)cc45)CC3)cccc21` [compound 12], the Ki at dopamine-D2 receptors (setting [2]) is 7.94 nM; on serotonin reuptake sites (setting [3]) it was < 1 nM. In series [1], the “Dopamine-D2 cAMP accum ∈” value stood at 0.75.

The molecule `Cn1c(=O)oc2c(N3CCN(CCc4c[nH]c5ccc(F)cc45)CC3)cccc21` [compound 13] came in with a melting point of 198 to 200 °C. At dopamine-D2 receptors, this molecule had a Ki of 3.98 nM. At serotonin reuptake sites, this molecule had a Ki of 3.16 nM. Besides, the “Dopamine-D2 cAMP accum ∈” value in series [1] worked out at 0.22.

Consider `Cn1c(=O)oc2c(N3CCN(CCCc4c[nH]c5ccc(F)cc45)CC3)cc(F)cc21` [compound 15], for which the figures for the Ki at dopamine-D2 receptors (setting [2]) and at serotonin reuptake sites (setting [3]) were 79.4 nM and 0.316 nM, respectively.

As for `CCn1c(=O)oc2c(N3CCN(CCCc4c[nH]c5ccc(F)cc45)CC3)cccc21` [compound 16], the Ki on dopamine-D2 receptors (setting [2]) is 39.8 nM; at serotonin reuptake sites (setting [3]), < 1 nM. Also, in series [1], the “Dopamine-D2 cAMP accum ∈” value was 0.15.

Take `Fc1ccc2[nH]cc(CCCN3CCN(c4cccc5[nH]c(=S)oc45)CC3)c2c1` [compound 17]: the melting point is 238 to 240 °C (dec.). The Ki on dopamine-D2 receptors (setting [2]) is 15.8 nM. Moreover, the Ki at serotonin reuptake sites (setting [3]) was 5.01 nM. Further, the “Dopamine-D2 cAMP accum ∈” value in series [1] is on record as 0.32.
